Several values for one entry are separate records, joined by “and”; a condition that tells them apart may be missing. Equal entries are not always repeated.
What was measured:
Raji cells = assay: Cell viability assay (CellTiter-Glo luminescence); assay type: cell-based, human; conditions: Homo sapiens, analogs, 72 h, Fig. 5c, read-out: IC50
Experimental: (§1) 5000 cells as indicated were cultured in 96-well plate with 100 μl of media. […] After treatment, the cells were incubated with 100 μl buffer for 10 min at room temperature following the instructions of CellTiter-Glo kit (Promega, Madison, WI). Luminescence was detected using a multi-mode reader Cytation 5 (BioTek, Winooski, VT). […] Two independent experiments done in duplicates were performed.

[1] = Body weight of xenograft mice; assay type: in vivo, NOD/SCID mice; conditions: individual mice, Fig S3i, in g (unit assumed)
Experimental: (§2) Six-week-old male NOD.CB17-Prkdc^scid/J (NOD/SCID) mice (Jackson Labs, Bar Harbor, ME, USA) were used as the human-in-mouse xeno-transplantation model. MOLM14 cells (1 × 10^7 cells) were injected into the subcutaneous space on the left flank of the mice. […] Body weight and tumor size were monitored before every injection. After treatment for 2 weeks, the mice were euthanized by CO2 inhalation and the tumors were carefully excised. The tumor volume (mm^3) was measured and calculated using the formula (a × b × b)/2 (a, the largest diameter of two measurements; b, the smallest diameter of two measurements).

MOLM14 xenografts = assay: In vivo tumorigenic assay using xenografts, tumor size; set-up: species or system NOD/SCID mice; conditions: MOLM14 xenograft
Experimental: as §2

[2] = test system: hematologic malignancies derived cell lines; assay: Cell viability assay, panel of hematologic malignancy derived cell lines; assay type: cell-based, human; conditions: 100 nM, 72 h, lymphoma, leukemia and multiple myeloma cell lines (13 cell lines for analogs)
Experimental: 5000 cells as indicated were cultured in 96-well plate with 100 μl of media. On the next day, Brusatol or associated analogs were added once to the cells without media change. After treatment, the cells were incubated with 100 μl buffer for 10 min at room temperature following the instructions of CellTiter-Glo kit (Promega, Madison, WI). Luminescence was detected using a multi-mode reader Cytation 5 (BioTek, Winooski, VT). […] Two independent experiments done in duplicates were performed.

PBMC = assay: Cytotoxicity, cell viability assay in normal cells; assay type: cell-based, human; conditions: Fig 5c
Text: Human peripheral blood mononuclear cells (PBMCs), normal T-cells and B-cells were provided by the University of Pennsylvania Human Immunology Core (HIC), and Patient-derived xenografts (PDXs) were obtained from Fox Chase Cancer Center (FCCC). These samples were from different unidentified and healthy donors with written, informed consent. All the procedures were approved by the Institutional Review Board (IRB) and conducted according to the declarations of Helsinki protocols.
as §1

| Structure (SMILES) | IC50 (Raji cells) | Body weight ([1]; 0d) | Body weight ([1]; 2d) | Body weight ([1]; 4d) | Body weight ([1]; 6d) | Body weight ([1]; 8d) | Body weight ([1]; 10d) | Body weight ([1]; 12d) | tumor size (Fig 5d&5e), individual mice (MOLM14 xenografts; 0d) | tumor size (Fig 5d&5e), individual mice (MOLM14 xenografts; 2d) | tumor size (Fig 5d&5e), individual mice (MOLM14 xenografts; 4d) | tumor size (Fig 5d&5e), individual mice (MOLM14 xenografts; 6d) | tumor size (Fig 5d&5e), individual mice (MOLM14 xenografts; 8d) | tumor size (Fig 5d&5e), individual mice (MOLM14 xenografts; 10d) | tumor size (Fig 5d&5e), individual mice (MOLM14 xenografts; 12d) | inhibition of cell viability in panel of cell lines [2] | Cell viability, raw luminescence reading (PBMC; Con. 0.01 μM) | Cell viability, raw luminescence reading (PBMC; Con. 0.039 μM) | Cell viability, raw luminescence reading (PBMC; Con. 0.156 μM) | Cell viability, raw luminescence reading (PBMC; Con. 0.625 μM) | other results |
| --- | --- | --- | --- | --- | --- | --- | --- | --- | --- | --- | --- | --- | --- | --- | --- | --- | --- | --- | --- | --- | --- |
| COC(=O)C12OCC34C(CC5C(C)=C(OC(=O)C(N)Cc6ccccc6)C(=O)CC5(C)C3C(O)C1O)OC(=O)C(OC(=O)C=C(C)C)C24 (stereo not drawn) [#14] | 39.2 nM | 25.66 and 26.32 and 25.88 and 25.26 and 25.69 | 26.84 and 26.83 and 25.73 | 30.22 and 27.96 | 31.1 and 27.6 | 31.54 and 29.03 and 29.06 and 28.16 and 27.82 and 27.45 | 32.14 and 29.64 and 29.88 and 28.65 and 28.04 | 33.33 and 31.09 and 31.73 and 30.06 and 30.08 | 146.154 and 92.4556 and 61.5288 and 118.617 and 111.079 and 97.6091 | 155.286 and 83.3599 and 78.5598 and 123.615 and 132.099 and 148.619 | 205.624 and 120.823 and 83.03 and 205.911 and 121.618 and 141.386 | 215.948 and 214.154 and 405.903 and 288.793 and 65.298 and 81.0923 | 654.828 and 372.84 and 268.332 and 549.466 and 314.977 and 266.348 | 1094.41 and 794.074 and 511.007 and 817.839 and 517.393 and 583.109 | 1848.1 and 1147.5 and 978.929 and 1531.82 and 970.42 and 1008.11 | significantly inhibit | 16702 and 18584 | 14138 and 13170 | 9796 and 9988 | 7942 and 8235 | Cell viability, raw luminescence reading (PBMC; Con. 10 μM): 10547 and 15443 |
| COC(=O)C12OCC34C(CC5C(C)=C(OC(=O)C6CCCN6)C(=O)CC5(C)C3C(O)C1O)OC(=O)C(OC(=O)C=C(C)C)C24 (stereo not drawn) [#31] | 36.5 nM | 25.68 and 24.55 and 25.16 and 23.48 | 27.27 and 26.58 and 25.38 and 25.93 and 25.43 and 23.7 | 26.97 and 26.67 and 25.81 and 25.44 and 25.69 | 27.97 and 26.96 and 26.09 | 28.38 and 27.82 and 26.73 and 25.66 | 28.24 and 27.47 and 25.9 and 26.82 and 26.06 | 29.56 and 29.11 and 26.31 and 27.31 | 74.2529 and 62.0281 and 101.973 and 60.5009 and 91.8956 and 82.6996 | 107.191 and 120.034 and 71.2216 and 100.836 and 98.4479 and 88.2667 | 99.5578 and 195.79 and 71.7513 and 67.0262 and 52.5262 and 97.4505 | 95.2698 and 78.8527 and 143.077 and 70.9567 and 158.17 and 228.179 | 324.747 and 668.944 and 318.873 and 96.919 and 128.11 and 346.937 | 458.137 and 927.585 and 502.969 and 200.67 and 236.721 and 666.334 | 959.947 and 1557.75 and 485.372 and 249.92 and 359.5 and 1074.17 | significantly inhibit | 21395 and 22004 | 12976 and 10747 | 7357 and 6947 | 8946 and 8046 | Cell viability, raw luminescence reading (PBMC; Con. 10 μM): 8102 and 7279 |
